In PubChem BioAssay (NCI):
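Step 1: Grow cells in 96-well plates. Step 2: Expose to compound for 48 hours at 5 concentrations. Step 3: Interpolate endpoints linearly; if unreached, use highest concentration. Here, GI50 denotes the concentration required for 50% inhibition of growth. At the TGI there is no net growth.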

Assays:
Test in all cases: growth of human tumour cells (NCI), 48 h
[1] = test system: SK-MEL-28 melanoma
[2] = test system: CAKI-1 renal
[3] = test system: KM12 colon
[4] = test system: SF-295 CNS
[5] = test system: NCI-H522 lung
[6] = test system: 786-0 renal
[7] = test system: PC-3 prostate
[8] = test system: DU-145 prostate
[9] = test system: T-47D breast
[10] = test system: BT-549 breast

| Compound | TGI [1] [µM] | TGI [2] [µM] | TGI [3] [µM] | TGI [4] [µM] | TGI [5] [µM] | TGI [6] [µM] | GI50 [1] [µM] | GI50 [2] [µM] | GI50 [3] [µM] | GI50 [7] [µM] | TGI [7] [µM] | GI50 [8] [µM] | TGI [8] [µM] | GI50 [4] [µM] | GI50 [9] [µM] | TGI [9] [µM] | GI50 [10] [µM] | TGI [10] [µM] | GI50 [5] [µM] |
| --- | --- | --- | --- | --- | --- | --- | --- | --- | --- | --- | --- | --- | --- | --- | --- | --- | --- | --- | --- |
| Cn1c(O)c(C(=O)Nc2cccs2)c(=O)[nH]c1=S | 29 | 47.8 | 33.4 | 38.1 | 27.6 | 41.8 |  |  |  |  |  |  |  |  |  |  |  |  |  |
| N#CC(C#N)=CN1CCN(C(=O)c2ccco2)C1=S | > 100 | 30.5 | 32.2 | > 100 |  |  | 12.5 | 4.76 | 4.12 | 17.3 | > 100 | 5.46 | > 100 | 31.3 | 21.2 | > 100 | 6.85 | 54.6 |  |
| C=C1C(=O)C([Si](C)(C)C)=C2C=C(C)C3(CC3)C12C (centres undefined) | > 100 | > 100 | > 100 | > 100 | 66.2 | > 100 |  |  |  |  | 42.5 |  | > 100 |  |  | > 100 |  | 55 |  |
| O=C(NO)c1ccc([N+](=O)[O-])cc1 | > 100 | > 100 | > 100 | > 100 | 97.2 | > 100 |  |  |  |  |  |  |  |  |  |  |  |  |  |
| CC1CC2OC(=O)C3CC(O)CC(=C23)[C@@]12C[C@@H](c1ccoc1)OC2=O (some centres undefined) | > 100 |  | > 100 | > 100 | > 100 | > 100 |  |  |  |  |  |  |  |  |  |  |  |  |  |
| COc1ccc(/C=C(\Cl)c2ccc(OC)c(OC)c2)cc1OC | > 100 | > 100 | > 100 | > 100 | > 100 | > 100 |  |  |  |  | > 100 |  | > 100 |  |  | > 100 |  | > 100 |  |
| COc1ccc(Br)c2c1CC(C(=O)O)CC2 (centres undefined) | > 100 | > 100 | > 100 | > 100 | > 100 | > 100 |  |  |  |  | > 100 |  | > 100 |  |  | > 100 |  | > 100 |  |
| CCOC(=O)/C(N=Nc1ccc(-n2c(C)nc3ccccc3c2=O)cc1)=C(/C)O | 71.6 | > 100 | 37.4 | > 100 |  | > 100 |  |  |  |  | > 100 |  | > 100 |  |  | 92.3 |  | > 100 |  |
| C/C(=N\N)C(CN(C)C)C(c1ccccc1)c1c(O)c2ccccc2oc1=O (centres undefined) | > 100 | > 100 | > 100 | > 100 | > 100 | > 100 |  |  |  |  | > 100 |  | > 100 |  |  |  |  | > 100 |  |
| COc1cc(/C=C\c2ccccn2)cc(OC)c1OC | > 100 | > 100 | > 100 | > 100 | > 100 | > 100 |  |  |  |  |  |  |  |  |  |  |  |  |  |
| O=c1c2cc(S(=O)(=O)Nc3ccccc3Cl)ccc2ncn1NS(=O)(=O)c1ccc(Br)cc1 | > 37.5 | > 37.5 | > 37.5 | > 37.5 | > 37.5 | > 37.5 |  |  |  |  | > 37.5 |  | > 37.5 |  |  |  |  | > 37.5 |  |
| COc1cc(/C=C/C(=O)c2sc(-n3nc(-c4ccccc4)cc3-c3ccccc3)nc2C)ccc1O | > 100 | > 100 | > 100 | > 100 | > 100 | > 100 |  |  |  |  |  |  |  |  |  |  |  |  |  |
| CCOC(=O)CSc1ccnc(=O)[nH]1 |  | > 100 | > 100 | > 100 | > 100 | > 100 |  |  |  |  |  |  |  |  |  |  |  |  |  |
| CN(C(=O)C12C3C4C1C1C2C3C41I)C(C)(C)C (centres undefined) | > 100 | > 100 | > 100 | > 100 | > 100 | > 100 |  |  |  |  |  |  |  |  |  |  |  |  |  |
| CCOC(=O)c1nc2ccc(C(F)(F)F)cc2nc1NCc1ccc(Cl)c(Cl)c1 |  | 57.5 | > 100 | 69.9 | 33.5 | 46.7 |  |  |  |  | 75.9 |  |  |  |  | > 100 |  | > 100 |  |
| Cc1c(C#N)c2nnn(C)c(=O)n2c1-c1ccccc1 | > 100 | > 100 | > 100 | > 100 |  |  |  |  |  |  | > 100 |  |  |  |  |  |  | > 100 |  |
| COc1ccc2c(c1)CC[C@@H]1[C@@H]2CC[C@]2(C)C(=O)C3(CCCCC3)C[C@@H]12 | > 100 | > 100 | > 100 | > 100 | > 100 |  | > 100 | 31.9 | > 100 | > 100 | > 100 | > 100 | > 100 | > 100 | > 100 | > 100 | > 100 | > 100 | > 100 |
| N#CC1(C#N)C2CCCCC23OC(=N)C1(C#N)C(c1ccco1)O3 (centres undefined) | 45.6 | 24.5 | > 100 | > 100 |  | 31.2 |  |  |  |  | 64.6 |  | 90 |  |  | 51.8 |  | 30.3 |  |
| Cn1nc(Cc2ccc(Cl)cc2)n(N)c1=O | > 100 | > 100 | > 100 | > 100 |  | > 100 |  |  |  |  | > 100 |  | > 100 |  |  | > 100 |  | > 100 |  |
| CCOC(C[C@H](O)[C@H]1COC(=S)S1)OCC |  |  | > 100 | > 100 | > 100 | > 100 |  |  |  |  |  |  |  |  |  |  |  |  |  |
| O=c1[nH]c(=O)n(C2OC(CO)C(O)C(F)C2O)cc1F (centres undefined) | > 100 | > 100 |  | > 100 | > 100 | > 100 |  |  |  |  | > 100 |  | > 100 |  |  | > 100 |  | > 100 |  |
| O=C(NC(C(F)(F)F)(C(F)(F)F)P(=O)(c1ccccc1)c1ccccc1)C(C(F)(F)F)C(F)(F)F | > 100 | 0.0564 | 56.8 | > 100 | 71.6 | 47.8 |  |  |  |  | 80.8 |  | > 100 |  |  | > 100 |  |  |  |
| CC(C)=CCCC1(C)C=Cc2c(c(C)cc3c2[nH]c2cc(O)ccc23)O1 (centres undefined) | > 25 |  | > 25 |  | > 25 | > 25 |  |  |  |  |  |  |  |  |  |  |  |  |  |
| O=S(=O)([O-])[O-].[Fe+2].c1ccc(/C(=N\Nc2ccccn2)c2ccccn2)cc1 |  | 10.5 | 14.6 | 8.77 | 3.55 | 10.7 |  |  |  |  |  |  |  |  |  |  |  |  |  |
